Assay results from BigSolDB 2.1.

CC1Cc2ccccc2N1NC(=O)c1ccc(Cl)c(S(N)(=O)=O)c1 (stereo not given)
solubility (mole fraction)
Details	in 2-butanone	in acetone	in acetonitrile	in cyclohexane	in ethanol	in ethyl acetate	in isopropanol	in methanol	in n-propanol	in toluene
278.15 K	0.0155	0.0204	0.00184	1.28e-06	0.00383	0.000455	0.0012	0.00524	0.00285	4.36e-06
283.15 K	0.0175	0.0228	0.00278	2.34e-06	0.00514	0.000769	0.00187	0.00676	0.00398	6.4e-06
288.15 K	0.0198	0.0257	0.00391	3.75e-06	0.00709	0.00115	0.00279	0.00877	0.00531	1.08e-05
293.15 K	0.0225	0.0288	0.00536	5.88e-06	0.00913	0.00165	0.00386	0.0115	0.00685	1.68e-05
298.15 K	0.0255	0.0322	0.00714	9.3e-06	0.0116	0.00235	0.00535	0.0147	0.00884	2.54e-05
303.15 K	0.0291	0.036	0.00953	1.45e-05	0.0148	0.00336	0.00732	0.0187	0.0114	3.62e-05
308.15 K	0.0329	0.0402	0.0124	2.23e-05	0.0186	0.00464	0.00979	0.023	0.0143	5.21e-05
313.15 K	0.0371	0.0445	0.0158	3.36e-05	0.0227	0.00638	0.013	0.0276	0.0177	7.52e-05
318.15 K	0.0417	0.0495	0.0199	5.02e-05	0.0275	0.00855	0.0168	0.033	0.0219	0.000106
